# Test results: ChEMBL document CHEMBL1201862, “PubChem BioAssay data set” (2004)
#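 The compound was tested at five concentrations on cells cultured in 96-well plates, with a 48-hour exposure period. Here, GI50 denotes the concentration required for 50% inhibition of growth.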 Activity calls are given as the source filed them. Rule as the data show it: active = GI50 up to about 1.1 µM and inactive = higher.
# Assays:
# Experiment in all cases: NCI tumour cell line growth inhibition, 48 h
# ACHN = system: ACHN
# COLO 205 = system: COLO 205
# DU-145 = system: DU-145
# HCC 2998 = system: HCC 2998
# HCT-116 = system: HCT-116
# HOP-92 = system: HOP-92
# KM12 = system: KM12
# MDA-MB-231 = system: MDA-MB-231
# NCI/ADR-RES = system: NCI/ADR-RES
# SNB-75 = system: SNB-75
# UACC-257 = system: UACC-257
# UACC-62 = system: UACC-62
# CAKI-1 = system: CAKI-1
# LOX IMVI = system: LOX IMVI
# Malme-3M = system: Malme-3M
# NCI-H226 = system: NCI-H226
# RXF 393 = system: RXF 393
# SF-268 = system: SF-268
# SK-MEL-5 = system: SK-MEL-5
# SR = system: SR
SMILES,GI50 (ACHN),GI50 (COLO 205),GI50 (DU-145),GI50 (HCC 2998),GI50 (HCT-116),GI50 (HOP-92),GI50 (KM12),GI50 (MDA-MB-231),GI50 (NCI/ADR-RES),GI50 (SNB-75),GI50 (UACC-257),GI50 (UACC-62),GI50 (CAKI-1),GI50 (LOX IMVI),GI50 (Malme-3M),GI50 (NCI-H226),GI50 (RXF 393),GI50 (SF-268),GI50 (SK-MEL-5),GI50 (SR)
Oc1cc(/C=C/c2ccccc2)nc2cc3c(cc12)OCO3,10.9 µM (inactive),2.38 µM (inactive),7.06 µM (inactive),2.9 µM (inactive),3.19 µM (inactive),2.08 µM (inactive),3.99 µM (inactive),2.79 µM (inactive),2.04 µM (inactive),6.93 µM (inactive),22.1 µM (inactive),3.19 µM (inactive),–,–,–,–,–,–,–,–
CCNc1ccc2c(c1)C(=O)N(OS(C)(=O)=O)C2=O,37.7 µM (inactive),42.7 µM (inactive),> 100 µM (inactive),> 100 µM (inactive),36.5 µM (inactive),> 100 µM (inactive),> 100 µM (inactive),> 100 µM (inactive),> 100 µM (inactive),–,> 100 µM (inactive),> 100 µM (inactive),70 µM (inactive),38.3 µM (inactive),30.3 µM (inactive),29 µM (inactive),32.4 µM (inactive),> 100 µM (inactive),41.2 µM (inactive),–
CC1CNC(NS(=O)(=O)c2cc(C(=O)Nc3ccccc3)c(Cl)cc2S)=NN1 (stereo not given),69 µM (inactive),48.6 µM (inactive),> 100 µM (inactive),46.1 µM (inactive),30.5 µM (inactive),–,33.3 µM (inactive),> 100 µM (inactive),> 100 µM (inactive),–,> 100 µM (inactive),43.2 µM (inactive),> 100 µM (inactive),21 µM (inactive),31.2 µM (inactive),44.7 µM (inactive),–,26.1 µM (inactive),23.2 µM (inactive),41.8 µM (inactive)
C[n+]1ccc2/c(=C\C#N)c3ccccc3n21,39.2 µM (inactive),19.7 µM (inactive),15.8 µM (inactive),19 µM (inactive),29.7 µM (inactive),22.4 µM (inactive),19.2 µM (inactive),–,> 100 µM (inactive),–,< 0.01 µM (active),34.8 µM (inactive),> 100 µM (inactive),15.9 µM (inactive),17.1 µM (inactive),32.5 µM (inactive),38.1 µM (inactive),32.2 µM (inactive),16.7 µM (inactive),18.2 µM (inactive)
CC(C)CNC(=O)Cn1c(-c2ccccc2)cc2ccccc21,> 100 µM (inactive),> 100 µM (inactive),> 100 µM (inactive),> 100 µM (inactive),> 100 µM (inactive),–,> 100 µM (inactive),–,> 100 µM (inactive),> 100 µM (inactive),> 100 µM (inactive),> 100 µM (inactive),> 100 µM (inactive),> 100 µM (inactive),> 100 µM (inactive),> 100 µM (inactive),> 100 µM (inactive),> 100 µM (inactive),> 100 µM (inactive),> 100 µM (inactive)
Cc1cc2c(C)n(Cc3ccccc3Cl)nc2c(C(=O)O)c1C,> 100 µM (inactive),> 10 µM (inactive),–,> 100 µM (inactive),> 100 µM (inactive),> 100 µM (inactive),–,–,–,> 100 µM (inactive),> 100 µM (inactive),> 100 µM (inactive),–,> 100 µM (inactive),> 100 µM (inactive),> 100 µM (inactive),> 100 µM (inactive),> 100 µM (inactive),–,> 100 µM (inactive)
CC(C)C(=S)N(C)O,31 µM (inactive),0.35 µM (active),–,40.2 µM (inactive),2.29 µM (inactive),47.8 µM (inactive),17.7 µM (inactive),–,–,22.4 µM (inactive),29.1 µM (inactive),10.1 µM (inactive),19.9 µM (inactive),11.8 µM (inactive),53.7 µM (inactive),44 µM (inactive),98.9 µM (inactive),27.6 µM (inactive),8.02 µM (inactive),0.481 µM (active)
CC(=O)OC1COC(Nc2ccc(C(C)=O)cc2)C(OC(C)=O)C1OC(C)=O (stereo not given),> 100 µM (inactive),> 100 µM (inactive),–,> 100 µM (inactive),–,> 100 µM (inactive),> 100 µM (inactive),–,–,> 100 µM (inactive),> 100 µM (inactive),> 100 µM (inactive),> 100 µM (inactive),> 100 µM (inactive),> 100 µM (inactive),> 100 µM (inactive),> 100 µM (inactive),> 100 µM (inactive),> 100 µM (inactive),> 100 µM (inactive)
CCOC(OC1=CCCC1)C(C)[Se]c1ccccc1 (stereo not given),61.8 µM (inactive),18.7 µM (inactive),–,32.4 µM (inactive),20.9 µM (inactive),51.2 µM (inactive),43.8 µM (inactive),–,–,39.3 µM (inactive),36 µM (inactive),23.9 µM (inactive),65.8 µM (inactive),14.7 µM (inactive),32.8 µM (inactive),36.1 µM (inactive),32.9 µM (inactive),17.6 µM (inactive),18.3 µM (inactive),14.2 µM (inactive)
O=[N+]([O-])c1ccc(CSC2=C(c3ccc(Cl)cc3)S/C(=C3\SC(SCc4ccc([N+](=O)[O-])cc4)=C(c4ccc(Cl)cc4)S3)S2)cc1,> 100 µM (inactive),> 100 µM (inactive),> 100 µM (inactive),> 100 µM (inactive),> 100 µM (inactive),< 0.01 µM (active),> 100 µM (inactive),> 100 µM (inactive),> 100 µM (inactive),–,> 100 µM (inactive),> 100 µM (inactive),> 100 µM (inactive),> 100 µM (inactive),> 100 µM (inactive),> 100 µM (inactive),> 100 µM (inactive),> 100 µM (inactive),> 100 µM (inactive),–
Cn1c(=O)c2[nH]c(Nc3cccc(Cl)c3)nc2n(C)c1=O,–,3.6 µM (inactive),4.76 µM (inactive),4.27 µM (inactive),–,2.78 µM (inactive),4.78 µM (inactive),7.48 µM (inactive),–,4.86 µM (inactive),4.18 µM (inactive),3.17 µM (inactive),4.75 µM (inactive),7.13 µM (inactive),3.65 µM (inactive),–,2.05 µM (inactive),6.98 µM (inactive),4.28 µM (inactive),–
C=C1C(=O)OC2C3C(=C)[C@@H](OC(C)=O)CC3C(C)=CC(OC(=O)C(C)(O)C(C)OC(C)=O)[C@@H]12 (stereo not given in full),10.4 µM (inactive),4.15 µM (inactive),16.2 µM (inactive),16.1 µM (inactive),5.02 µM (inactive),–,15.2 µM (inactive),19.8 µM (inactive),–,13.7 µM (inactive),9.46 µM (inactive),10.6 µM (inactive),2.9 µM (inactive),4.89 µM (inactive),6.7 µM (inactive),21.6 µM (inactive),3.61 µM (inactive),19.5 µM (inactive),7.4 µM (inactive),7.41 µM (inactive)
COc1cc(/C=C2\[C@H]3c4c(c(OC)c(C)c(OC)c4OC)CC(C(=O)N2Cc2ccccc2)N3C)c(OC)c(C)c1OC,26.1 µM (inactive),17.3 µM (inactive),–,21.7 µM (inactive),> 100 µM (inactive),19.9 µM (inactive),36 µM (inactive),–,–,25.4 µM (inactive),21 µM (inactive),16.4 µM (inactive),30.3 µM (inactive),18.4 µM (inactive),21.9 µM (inactive),10.4 µM (inactive),> 100 µM (inactive),27.2 µM (inactive),19 µM (inactive),21.2 µM (inactive)
COC(=O)[C@@H]1C(=O)O[C@@H](c2ccc(OC)c(OC)c2OC)[C@@H]1C(=O)OC.COC(=O)[C@H]1C(=O)O[C@@H](c2ccc(OC)c(OC)c2OC)[C@@H]1C(=O)OC,> 100 µM (inactive),> 100 µM (inactive),–,> 100 µM (inactive),> 100 µM (inactive),> 100 µM (inactive),> 100 µM (inactive),–,–,> 100 µM (inactive),> 100 µM (inactive),> 100 µM (inactive),> 100 µM (inactive),> 100 µM (inactive),> 100 µM (inactive),> 100 µM (inactive),> 100 µM (inactive),> 100 µM (inactive),> 100 µM (inactive),> 100 µM (inactive)
COc1cc2nc(Sc3c([N+](=O)[O-])ncn3C)[nH]c2cc1OC,54.3 µM (inactive),13.6 µM (inactive),–,17.9 µM (inactive),27.4 µM (inactive),16.5 µM (inactive),46.7 µM (inactive),–,–,28.4 µM (inactive),28.6 µM (inactive),24.3 µM (inactive),4.47 µM (inactive),41.6 µM (inactive),56.2 µM (inactive),28.3 µM (inactive),16.1 µM (inactive),19.2 µM (inactive),18.9 µM (inactive),13.3 µM (inactive)
C[n+]1c(-c2ccc(/C=N/NC(=O)C(=O)N/N=C/c3ccc(-c4cn5ccccc5[n+]4C)cc3)cc2)cn2ccccc21,> 100 µM (inactive),> 100 µM (inactive),> 100 µM (inactive),> 100 µM (inactive),–,> 100 µM (inactive),> 100 µM (inactive),> 100 µM (inactive),> 100 µM (inactive),> 100 µM (inactive),> 100 µM (inactive),> 100 µM (inactive),> 100 µM (inactive),–,> 100 µM (inactive),> 100 µM (inactive),> 100 µM (inactive),–,91 µM (inactive),–
